According to BindingDB's records for PubMed 38943875 (Kurukshetra University):

Target: T1, Alpha-amylase 1A (Homo sapiens, UniProt P0DUB6)
T1 sequence (P0DUB6 whole entry): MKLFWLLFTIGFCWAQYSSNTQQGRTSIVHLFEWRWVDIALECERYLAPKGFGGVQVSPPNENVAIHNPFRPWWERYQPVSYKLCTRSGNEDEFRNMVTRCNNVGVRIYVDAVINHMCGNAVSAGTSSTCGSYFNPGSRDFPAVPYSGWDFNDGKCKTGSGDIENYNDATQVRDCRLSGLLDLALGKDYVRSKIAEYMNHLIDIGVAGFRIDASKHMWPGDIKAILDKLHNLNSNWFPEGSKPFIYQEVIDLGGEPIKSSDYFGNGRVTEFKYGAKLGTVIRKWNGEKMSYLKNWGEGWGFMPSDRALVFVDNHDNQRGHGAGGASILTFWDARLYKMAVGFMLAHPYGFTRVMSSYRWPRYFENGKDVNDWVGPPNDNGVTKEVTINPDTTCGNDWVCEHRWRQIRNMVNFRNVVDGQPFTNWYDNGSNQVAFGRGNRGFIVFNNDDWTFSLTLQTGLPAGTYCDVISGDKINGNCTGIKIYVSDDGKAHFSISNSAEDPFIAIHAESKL
Assay: Inhibition of alpha-amylase (unknown origin) using 1% starch as substrate preincubated for 30 mins followed by substrate addition and measured after 30 mins by colorimetric analysis

| IC50 [µM] | Structure (SMILES) |
| --- | --- |
| 139 | C#CCN1C(=O)SC(=CN(C)C)C1=O |
| 61 | Cc1cccc(-n2cc(CN3C(=O)SC(=CN(C)C)C3=O)nn2)c1 |
| 59 | CN(C)C=C1SC(=O)N(Cc2cn(-c3ccc([N+](=O)[O-])cc3)nn2)C1=O |
| 99 | CN(C)C=C1SC(=O)N(Cc2cn(-c3ccccc3)nn2)C1=O |
| 53 | COc1ccc(-n2cc(CN3C(=O)SC(=CN(C)C)C3=O)nn2)cc1 |
| 40 | CN(C)C=C1SC(=O)N(Cc2cn(-c3ccnc4cc(Cl)ccc34)nn2)C1=O |
| 93 | CN(C)C=C1SC(=O)N(Cc2cn(-c3ccc(F)cc3)nn2)C1=O |
| 66 | CN(C)C=C1SC(=O)N(Cc2cn(-c3cccc(Cl)c3)nn2)C1=O |
| 98 | CN(C)C=C1SC(=O)N(Cc2cn(-c3ccc(Cl)cc3)nn2)C1=O |
| 58 | CCCCn1cc(CN2C(=O)SC(=CN(C)C)C2=O)nn1 |
| 48 | CN(C)C=C1SC(=O)N(Cc2cn(-c3ccccc3C(F)(F)F)nn2)C1=O |
| 55 | CN(C)C=C1SC(=O)N(Cc2cn(-c3cccc(C(F)(F)F)c3)nn2)C1=O |
| 84 | CN(C)C=C1SC(=O)N(Cc2cn(-c3ccc(C(F)(F)F)cc3)nn2)C1=O |
| 91 | CN(C)C=C1SC(=O)N(Cc2cn(-c3ccccc3Cl)nn2)C1=O |
| 69 | COc1cccc(-n2cc(CN3C(=O)SC(=CN(C)C)C3=O)nn2)c1 |
| 48 | Cc1ccc(-n2cc(CN3C(=O)SC(=CN(C)C)C3=O)nn2)c(C)c1 |
| 93 | Cc1ccc(C)c(-n2cc(CN3C(=O)SC(=CN(C)C)C3=O)nn2)c1 |
| 66 | Cc1cc(C)cc(-n2cc(CN3C(=O)SC(=CN(C)C)C3=O)nn2)c1 |
| 65 | COc1ccccc1-n1cc(CN2C(=O)SC(=CN(C)C)C2=O)nn1 |
| 60 | CN(C)C=C1SC(=O)N(Cc2cn(-c3cccc(Cl)c3Cl)nn2)C1=O |
| 68 | CCc1ccc(-n2cc(CN3C(=O)SC(=CN(C)C)C3=O)nn2)cc1 |
| 49 | CCc1ccccc1-n1cc(CN2C(=O)SC(=CN(C)C)C2=O)nn1 |
| 54 | CC(C)c1ccc(-n2cc(CN3C(=O)SC(=CN(C)C)C3=O)nn2)cc1 |
| 80 | CN(C)C=C1SC(=O)N(Cc2cn(Cc3ccccc3)nn2)C1=O |
| 45 | CN(C)C=C1SC(=O)N(Cc2cn(Cc3ccc(Cl)cc3Cl)nn2)C1=O |
| 78 | CN(C)C=C1SC(=O)N(Cc2cn(CC(=O)c3ccc(Br)cc3)nn2)C1=O |
